We go through twelve compounds from ChEMBL document CHEMBL5620386, “Synthesis, biological screening and in silico studies of new N-phenyl-4-(1,3-diaryl-1H-pyrazol-4-yl)thiazol-2-amine derivatives as potential antifungal and antitubercular agents” (Eur J Med Chem, 2023).

Series [1] concerns Staphylococcus aureus. Nature of the series: Antimicrobial activity against Staphylococcus aureus NCIM 2178 assessed as zone of inhibition by well diffusion method. Type of series: functional.
Series [2] concerns Proteus mirabilis. Nature of the series: Antimicrobial activity against Proteus mirabilis NCIM 2388 assessed as zone of inhibition by well diffusion method. Type of series: functional. Background: In agar diffusion tests the substance spreads into inoculated agar from a disc or well.
Series [3] is described as follows: Cytotoxicity against mouse 3T3-L1 cells assessed as cell viability at 12.5 ug/ml measured after 24 hrs by MTT assay relative to control. Type of series: toxicity, cell-based. The following applies: at 12.5 µg/mL, read-out: Activity. In general terms: Formazan colour is commonly taken as a measure of viable cells.
In series [4] the test system is Aspergillus niger. In words: Antifungal activity against Aspergillus niger ATCC 504 assessed as absence of growth by well diffusion method. Type of series: functional.
A short description of series [5]: Cytotoxicity against mouse 3T3-L1 cells assessed as cell viability at 25 ug/ml measured after 24 hrs by MTT assay relative to control. The class given is toxicity, cell-based. The following applies: at 25 µg/mL, read-out: Activity.
In series [6] the test system is Bacillus subtilis. Nature of the series: Antimicrobial activity against Bacillus subtilis NCIM 2063 assessed as absence of growth by well diffusion method. The class given is functional.
Series [7] concerns Proteus mirabilis. Nature of the series: Antimicrobial activity against Proteus mirabilis NCIM 2388 assessed as absence of growth by well diffusion method. The class given is functional.
In series [8] the test system is Mycobacterium tuberculosis. Nature of the series: Antitubercular activity Mycobacterium tuberculosis H37Rv strain ATCC No- 27294 assessed as prevention of color change from blue to pink using Almar Blue measured after 24 hrs by MABA assay. The class given is functional.
For another series, the system named is Candida albicans. Nature of the series: Antifungal activity against Candida albicans NCIM 3100 assessed as zone of inhibition by well diffusion method. The class given is functional.
The subject of another series is Escherichia coli. In words: Antimicrobial activity against Escherichia coli NCIM 2574 assessed as zone of inhibition by well diffusion method. The class given is functional.
Series [9] deals with Aspergillus niger. Nature of the series: Antifungal activity against Aspergillus niger ATCC 504 assessed as zone of inhibition by well diffusion method. Type of series: functional.
For series [10], the system named is Bacillus subtilis. In words: Antimicrobial activity against Bacillus subtilis NCIM 2063 assessed as zone of inhibition by well diffusion method. The class given is functional.
Series [11] deals with Staphylococcus aureus. In words: Antimicrobial activity against Staphylococcus aureus NCIM 2178 assessed as absence of growth by well diffusion method. The class given is functional.

In brackets after ≈: the same amount, converted by molar mass. Several values for one entry are separate records, joined by “and”; a condition that tells them apart may be missing. Equal entries are not always repeated. Activity calls are given as the source filed them. No cut-off for these calls is given here.

As for `Cc1ccc(Nc2nc(-c3cn(-c4ccc(F)cc4)nc3-c3ccc(F)cc3)cs2)cc1`, the “inhibition zone (IZ)” value in the series on Staphylococcus aureus [1] is listed as 13 mm; in the series on Proteus mirabilis [2], 15 mm; with Candida albicans it was 10.2 mm; in the series with Aspergillus niger [9] it was 18.6 mm; with Bacillus subtilis [10] it was 18 mm. In addition, the viability at 24 h, 12.5 ug/ml in [3] is 99.5%. Also, the minimum inhibitory concentration (MIC) is 15.6 µg/mL and 35.2 µM with Aspergillus niger [4]; 15.6 µg/mL and 35.2 µM in the series on Bacillus subtilis [6]; 125 µg/mL (≈ 281 µM) with Proteus mirabilis [7]; 3.12 µg/mL and 7.03 µM in series [8]. Moreover, in series [5], the viability at 24 h, 25 ug/ml is 114%. Further, in the series with Escherichia coli, the “inhibition zone (IZ)” value is “inactive”.

On to `COc1ccc(Nc2nc(-c3cn(-c4ccc(F)cc4)nc3-c3ccc(F)cc3)cs2)cc1`, for which the “inhibition zone (IZ)” value is 15 mm in the series on Staphylococcus aureus [1]; 14 mm in the series on Proteus mirabilis [2]; 11.6 mm with Candida albicans; 19 mm in the series on Aspergillus niger [9]; 12 mm with Bacillus subtilis [10]. Besides, the viability at 24 h, 12.5 ug/ml in [3] is 113%. For the same compound, the minimum inhibitory concentration (MIC) in the series on Aspergillus niger [4] was 15.6 µg/mL and 34 µM; with Bacillus subtilis [6], 7.82 µg/mL (≈ 17 µM); in the series with Proteus mirabilis [7], 125 µg/mL (≈ 271 µM); in series [8] it was 3.12 µg/mL and 6.78 µM; in the series with Staphylococcus aureus [11], 125 µg/mL (≈ 271 µM). Also, the viability at 24 h, 25 ug/ml in series [5] is 102%. In addition, the “inhibition zone (IZ)” value with Escherichia coli is “inactive”.

As to `Cc1ccc(Nc2nc(-c3cn(-c4ccc(F)cc4)nc3-c3ccccc3)cs2)cc1`, the “inhibition zone (IZ)” value in the series with Staphylococcus aureus [1] was 17 mm; with Proteus mirabilis [2], 14.2 mm; in the series on Candida albicans it was 10.2 mm; in the series on Aspergillus niger [9], 18.6 mm; in the series on Bacillus subtilis [10], 14.2 mm. For the same compound, the viability at 24 h, 12.5 ug/ml in series [3] turned out to be 102%. Besides, the minimum inhibitory concentration (MIC) in the series with Aspergillus niger [4] is 15.6 µg/mL and 36.7 µM; in the series with Bacillus subtilis [6], 125 µg/mL (≈ 293 µM); with Proteus mirabilis [7], 125 µg/mL (≈ 293 µM); in [8], 3.12 µg/mL and 7.34 µM; in the series on Staphylococcus aureus [11] it was 62.5 µg/mL and 147 µM. Moreover, in series [5], the viability at 24 h, 25 ug/ml turned out to be 96.2%. The “inhibition zone (IZ)” value with Escherichia coli is “inactive”.

For `Fc1ccc(-c2nn(-c3ccc(F)cc3)cc2-c2csc(Nc3ccc(Cl)cc3)n2)cc1`, the “inhibition zone (IZ)” value in the series on Staphylococcus aureus [1] was 14 mm; with Proteus mirabilis [2], 15 mm; in the series on Candida albicans, 10 mm; with Escherichia coli it was 12 mm; in the series on Aspergillus niger [9] it was 19.6 mm; in the series on Bacillus subtilis [10], 14 mm. The MIC in the series on Aspergillus niger [4] is 15.6 µg/mL and 33.7 µM; in the series on Bacillus subtilis [6], 125 µg/mL (≈ 269 µM); with Proteus mirabilis [7] it was 125 µg/mL (≈ 269 µM); in series [8], 25 µg/mL and 53.9 µM; with Staphylococcus aureus [11], 125 µg/mL (≈ 269 µM).

`Cc1ccc(-c2nn(-c3ccccc3)cc2-c2csc(Nc3ccccc3)n2)cc1`: the “inhibition zone (IZ)” value is given as 15 mm in the series with Staphylococcus aureus [1]; 15 mm in the series on Proteus mirabilis [2]; 9.6 mm in the series on Candida albicans; 13 mm with Escherichia coli; 20 mm with Aspergillus niger [9]; 11.4 mm with Bacillus subtilis [10]. The viability at 24 h, 12.5 ug/ml in [3] turned out to be 64.6%. The MIC in the series on Aspergillus niger [4] is 15.6 µg/mL and 38.3 µM; in the series on Proteus mirabilis [7], 125 µg/mL (≈ 306 µM); in series [8], 12.5 µg/mL and 30.6 µM; in the series with Staphylococcus aureus [11], 125 µg/mL (≈ 306 µM). In series [5], the viability at 24 h, 25 ug/ml worked out at 57.3%.

For `CN[C@@H]1[C@H](O[C@H]2[C@H](O[C@H]3[C@H](O)[C@@H](O)[C@H](N=C(N)N)[C@@H](O)[C@@H]3N=C(N)N)O[C@@H](C)[C@]2(O)C=O)O[C@@H](CO)[C@H](O)[C@H]1O` [STREPTOMYCIN], the “inhibition zone (IZ)” value stood at 21 mm in the series with Staphylococcus aureus [1], 21 mm in the series on Proteus mirabilis [2] and 18.5 mm with Bacillus subtilis [10]. In addition, the MIC result in the series on Aspergillus niger [4] is “inactive”. The MIC with Bacillus subtilis [6] is 7.82 µg/mL and 13.4 µM; in the series with Proteus mirabilis [7] it was 7.82 µg/mL and 25.5 µM; in the series on Staphylococcus aureus [11], 7.82 µg/mL and 13.4 µM.

In the case of `COc1ccc(Nc2nc(-c3cn(-c4ccccc4)nc3-c3ccc(C)cc3)cs2)cc1`, the “inhibition zone (IZ)” value worked out at 14 mm with Staphylococcus aureus [1]; 15 mm with Proteus mirabilis [2]; 10.6 mm with Candida albicans; 18.6 mm in the series on Aspergillus niger [9]; 12.4 mm with Bacillus subtilis [10]. In addition, the viability at 24 h, 12.5 ug/ml in series [3] is 97.5%. The minimum inhibitory concentration (MIC) was 15.6 µg/mL and 35.7 µM with Aspergillus niger [4]; 125 µg/mL (≈ 285 µM) with Proteus mirabilis [7]; 50 µg/mL and 114 µM in series [8]; 125 µg/mL (≈ 285 µM) in the series on Staphylococcus aureus [11]. Also, in series [5], the viability at 24 h, 25 ug/ml stood at 90.5%. In the series with Escherichia coli, the “inhibition zone (IZ)” value is “inactive”.

In the case of `COc1ccc(Nc2nc(-c3cn(-c4ccccc4)nc3-c3ccc(Cl)cc3)cs2)cc1`, the “inhibition zone (IZ)” value in the series on Staphylococcus aureus [1] is on record as 15 mm; with Proteus mirabilis [2] it was 14 mm; with Candida albicans, 10 mm; with Aspergillus niger [9] it was 18.2 mm; in the series with Bacillus subtilis [10] it was 14.8 mm. Besides, the MIC in the series on Aspergillus niger [4] is 15.6 µg/mL and 32.5 µM; with Bacillus subtilis [6] it was 125 µg/mL (≈ 272 µM); with Proteus mirabilis [7] it was 125 µg/mL (≈ 272 µM); in series [8], 1.6 µg/mL and 3.49 µM; in the series with Staphylococcus aureus [11], 125 µg/mL (≈ 272 µM). For the same compound, in the series with Escherichia coli, the “inhibition zone (IZ)” value was “inactive”.

With `Cc1ccc(Nc2nc(-c3cn(-c4ccccc4)nc3-c3ccc(Cl)cc3)cs2)cc1`, the “inhibition zone (IZ)” value came to 15 mm in the series on Staphylococcus aureus [1]; 14 mm in the series with Proteus mirabilis [2]; 10.2 mm with Candida albicans; 18.2 mm in the series on Aspergillus niger [9]; 12 mm in the series on Bacillus subtilis [10]. In addition, the viability at 24 h, 12.5 ug/ml in series [3] amounted to 83.8%. The MIC is 15.6 µg/mL and 35.3 µM in the series with Aspergillus niger [4]; 125 µg/mL (≈ 282 µM) in the series with Proteus mirabilis [7]; 1.6 µg/mL and 3.61 µM in series [8]; 125 µg/mL (≈ 282 µM) with Staphylococcus aureus [11]. In addition, the viability at 24 h, 25 ug/ml in series [5] came out at 72.9%. Moreover, the “inhibition zone (IZ)” value in the series on Escherichia coli was “inactive”.

For the compound `Fc1ccc(-c2nn(-c3ccc(F)cc3)cc2-c2csc(Nc3ccccc3)n2)cc1`, the “inhibition zone (IZ)” value in the series with Staphylococcus aureus [1] is 15 mm; with Proteus mirabilis [2], 15.2 mm; with Candida albicans, 12.2 mm; in the series with Aspergillus niger [9] it was 19.25 mm; in the series with Bacillus subtilis [10] it was 14 mm. The minimal inhibitory concentration (MIC) in the series with Aspergillus niger [4] was 15.6 µg/mL and 36.3 µM; in the series on Bacillus subtilis [6], 125 µg/mL (≈ 290 µM); with Proteus mirabilis [7], 125 µg/mL (≈ 290 µM); in [8], 25 µg/mL and 58.1 µM; in the series with Staphylococcus aureus [11], 125 µg/mL (≈ 290 µM). Also, the “inhibition zone (IZ)” value with Escherichia coli was “inactive”.

`Cc1ccc(Nc2nc(-c3cn(-c4ccc(F)cc4)nc3-c3ccc(Cl)cc3)cs2)cc1`: the “inhibition zone (IZ)” value with Staphylococcus aureus [1] came out at 17 mm; in the series with Proteus mirabilis [2], 15 mm; in the series with Candida albicans, 10.8 mm; in the series on Aspergillus niger [9], 20.2 mm; in the series with Bacillus subtilis [10], 12.2 mm. Also, in series [3], the viability at 24 h, 12.5 ug/ml came out at 72%. In addition, the MIC in the series with Aspergillus niger [4] is 15.6 µg/mL and 34 µM; with Proteus mirabilis [7] it was 125 µg/mL (≈ 271 µM); in series [8] it was 1.6 µg/mL and 3.47 µM; with Staphylococcus aureus [11], 62.5 µg/mL and 136 µM. In series [5], the viability at 24 h, 25 ug/ml was found to be 91.3%. The “inhibition zone (IZ)” value with Escherichia coli is “inactive”.

As to `OC(Cn1cncn1)(Cn1cncn1)c1ccc(F)cc1F` [FLUCONAZOLE], in the series on Aspergillus niger [4], the minimum inhibitory concentration (MIC) was 7.82 µg/mL and 25.5 µM. The MIC result in the series with Bacillus subtilis [6], with Proteus mirabilis [7] and in the series with Staphylococcus aureus [11] was “inactive” each time. Moreover, in the series with Candida albicans, the “inhibition zone (IZ)” value is 21.6 mm.

By MIC is commonly meant the least concentration at which growth counts as inhibited.
